Experiments:
BMX = biological target: T1, BMX (Homo sapiens, UniProt P51813); assay: HotSpot kinase enzymatic assay, BMX; format: biochemical
T1 construct: purchased Reaction Biology Corporation
T1 sequence (P51813 1-675): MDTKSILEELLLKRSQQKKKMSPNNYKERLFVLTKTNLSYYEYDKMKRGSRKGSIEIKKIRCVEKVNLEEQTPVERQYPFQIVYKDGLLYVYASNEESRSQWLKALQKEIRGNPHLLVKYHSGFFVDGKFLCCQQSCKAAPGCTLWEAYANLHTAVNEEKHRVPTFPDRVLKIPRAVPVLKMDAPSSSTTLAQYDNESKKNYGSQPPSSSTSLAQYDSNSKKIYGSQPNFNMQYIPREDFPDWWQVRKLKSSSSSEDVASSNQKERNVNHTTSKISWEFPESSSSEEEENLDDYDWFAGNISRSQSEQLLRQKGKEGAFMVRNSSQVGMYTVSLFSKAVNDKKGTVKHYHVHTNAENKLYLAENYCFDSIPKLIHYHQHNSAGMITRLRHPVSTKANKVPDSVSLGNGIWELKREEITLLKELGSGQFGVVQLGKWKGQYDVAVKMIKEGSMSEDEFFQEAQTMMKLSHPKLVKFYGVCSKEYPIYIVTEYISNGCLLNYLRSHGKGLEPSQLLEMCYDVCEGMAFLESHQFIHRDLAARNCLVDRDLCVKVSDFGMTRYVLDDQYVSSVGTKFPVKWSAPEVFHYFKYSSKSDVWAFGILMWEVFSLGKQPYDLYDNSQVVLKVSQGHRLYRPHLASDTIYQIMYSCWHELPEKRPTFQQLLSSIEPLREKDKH
Description: (§1) Therefore, efforts have focused on developing new compounds with good selectivity profiles. […] Compound 8 was selective against BTK. The biochemical activities of compound 8 differed among TEC family kinases. […] The inhibitory potential of compound 8 differed between members of the EGFR family. […] The inhibitory activity of compound 8 against JAK3 was also low.
(§2) Kinase enzymatic assays for BTK, BMX, TXK, TEC, ITK, EGFR, ERBB2, ERBB4, and JAK3 were performed at Reaction Biology Corporation (www.reactionbiology.com, Malvern, PA, USA) using the HotSpot assay platform. Briefly, specific kinase/substrate pairs and the required cofactors were prepared in a reaction buffer comprising 20 mM HEPES (pH 7.5), 10 mM MgCl2, 1 mM EGTA, 0.02% Brij35, 0.02 mg/mL BSA, 0.1 mM Na3VO4, 2 mM DTT, and 1% DMSO. The compounds were added to the reaction mixture and allowed to incubate. Approximately 20 min later, a mixture of ATP (Sigma-Aldrich, St. Louis, MO, USA) and ^33P ATP (PerkinElmer, Waltham, MA, USA) was added to the reaction mixture at a final concentration of 10 μM. The reactions were performed at room temperature for 120 min; subsequently, the reactions were spotted onto P81 ion exchange filter papers (Whatman Inc., Maidstone, UK). Any unbound phosphate was removed by thoroughly washing the filter papers with 0.75% phosphoric acid. […]

TEC = biological target: T2, TEC (Homo sapiens, UniProt P42680); assay: HotSpot kinase enzymatic assay, TEC; format: biochemical
T2 construct: purchased Reaction Biology Corporation
T2 sequence (P42680 1-631): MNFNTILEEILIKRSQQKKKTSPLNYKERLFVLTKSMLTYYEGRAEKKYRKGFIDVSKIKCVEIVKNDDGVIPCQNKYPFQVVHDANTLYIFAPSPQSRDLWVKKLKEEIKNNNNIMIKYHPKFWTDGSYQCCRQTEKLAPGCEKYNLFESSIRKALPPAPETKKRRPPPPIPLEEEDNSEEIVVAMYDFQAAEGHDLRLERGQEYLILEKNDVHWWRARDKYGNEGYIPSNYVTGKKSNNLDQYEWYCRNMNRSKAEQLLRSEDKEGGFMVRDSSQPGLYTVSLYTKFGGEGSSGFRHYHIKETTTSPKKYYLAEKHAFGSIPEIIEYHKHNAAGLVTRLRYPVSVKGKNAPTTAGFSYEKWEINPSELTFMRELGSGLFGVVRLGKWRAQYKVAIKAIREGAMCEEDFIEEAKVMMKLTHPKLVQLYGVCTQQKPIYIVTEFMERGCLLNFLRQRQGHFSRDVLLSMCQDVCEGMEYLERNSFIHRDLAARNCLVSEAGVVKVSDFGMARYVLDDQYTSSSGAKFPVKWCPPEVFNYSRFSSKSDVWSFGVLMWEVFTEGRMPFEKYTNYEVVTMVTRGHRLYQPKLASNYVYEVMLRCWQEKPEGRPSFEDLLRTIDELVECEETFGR
Description: as §1, §2

[1] = tested on: IL-6 production in LPS-stimulated THP-1 cells; assay: LPS-induced IL-6 release in THP-1 cells (ELISA); format: cell-based, human
From the text: BTK plays a critical role in high-affinity IgE receptor (FcεRI) and B cell receptor (BCR) signaling, resulting in the release of proinflammatory cytokines. Therefore, BTK inhibitor treatment can reduce the production of both lymphoid and myeloid cytokines. […] We examined the cellular effects of compound 8 on the production of cytokines IL-6 and TNF-α in LPS-stimulated THP-1 cells. Following treatment with LPS alone or LPS and compound 8, the levels of cytokines secreted by THP-1 cells were assessed (Figure 5). LPS increased the output of proinflammatory cytokines.
THP-1 cells were obtained from the American Type Culture Collection (ATCC, Manassas, VA, USA). The cells were cultured in RPMI-1640 supplemented with 10% FBS, 1% P/S, and 0.05 mM 2-mercaptoethanol and maintained at 37 °C and 5% CO2 in a humidified incubator. Cytokine secretion (hIL-6 and TNF-α) in the culture supernatants of the THP-1 cells was measured using a human cytokine ELISA kit (Abcam). Differentiated THP-1 cells were treated with agents and LPS for 24 h, after which the cell culture media was centrifuged at 2000× g for 10 min to remove debris. Briefly, each sample (50 μL) or standard was mixed with the appropriate detection antibody and incubated for 1 h at room temperature on a plate shaker. […] Subsequently, 100 μL of stop solution was added to each well, and the optical density (OD) was measured at 450 nm. […]

With `C=CC(=O)O[C@H]1Cc2cc3ccc(=O)oc3cc2OC1(C)C` [Compound 8, (7S)-(+)-Acrylic acid, 8,8-dimethyl-2-oxo-6,7-dihydro-2H,8H-pyrano [3,2-g]chromen-7-yl ester] the “inhibitory activity against BMX (in words)” value (BMX) was “strong inhibitory activity”, the inhibition at 10 µM (BMX; 10 µM, mean of two experiments) was 95.4% and the “inhibitory activity against TEC (in words)” value (TEC) was “moderate activity”. For the same compound, the inhibition at 10 µM (TEC; 10 µM, mean of two experiments) was 54.5%, the “production of IL-6” value ([1]; LPS-stimulated differentiated THP-1 cells, 24 h, ELISA) was “significantly and dose-dependently reduced” and the “inhibitory activity on IL-6 production at 10 μM, compared with ibrutinib” value ([1]; compound at 10 μM, ibrutinib at 2 μM) was “comparable with that of ibrutinib at 2 μM”.
